In patent US5591741A, “Fungicidal spiroheterocyclic derivatives” (American Cyanamid Company, priority 1993, dated 1997):

Legend:
[1] = test system: Pyricularia oryzae; format: in vivo; conditions: rice seedlings, direct therapeutic foliar spray, 600 ppm, 4-5 days
[2] = test system: Rhizoctonia solani; test: Activity against Rhizoctonia in-vitro (RSI); format: cell-based; conditions: 10 ppm, 10 days, 20° C., mycelial growth
Method: (i) Activity against Rhizoctonia in-vitro (Rhizoctonia solani: RSI) This test measures the in-vitro activity of compounds against R. solani that causes stem and root rots. The test compound in acetone is added into 4 ml aliquots of half strength Potato Dextrose Broth dispensed in 25-compartment petri dishes to give final concentrations of 10 ppm. The fungal inoculum consists of mycelial fragments of R. solani growth in half strength PDB in shaken culture flasks and added to the broth to provide 5×10^4 fragments/ml broth. Petri dishes are incubated at 20° C. for 10 days until the assessment of mycelial growth. The extent of disease control in all the above tests is expressed as a rating compared with either an untreated control or a diluent-sprayed-control, according to the criteria: […]

[3] = test system: Alternaria solani; test: Activity against tomato early blight (AS); format: in vivo; conditions: Table VI; tomato seedlings, contact prophylactic foliar spray, 4 days
Method: b) Activity against tomato early blight (Alternaria solani; AS) This test measures the contact prophylactic activity of test compounds applied as a foliar spray. Tomato seedlings (cv Outdoor Girl) are grown to the stage at which the second true leaf is expanded. The plants are treated using an automated sprayline as described under (a). Test compounds are applied as solutions or suspensions in a mixture of acetone and water (50:50 v/v) containing 0.04% surfactant ("TWEEN 20"--Trade Mark). After drying the plants are kept for 24 hours in a glasshouse at 20° C. and 40% R.H., followed by inoculation of the leaf upper surfaces with a suspension of A. solani conidia containing 10^4 spores/ml. For 4 days after inoculation plants are kept moist in a humidity compartment at 21° C. Disease is assessed 4 days after inoculation, based on the percentage of leaf surface area covered by lesions when compared with control plants. The extent of disease control in all the above tests is expressed as a rating compared with either an untreated control or a diluent-sprayed-control, according to the criteria: […]

[4] = test system: Erysiphe graminis f.sp. hordei; test: Direct protectant activity against barley powdery mildew (EGP); format: in vivo; conditions: direct protectant foliar spray, 8 days
Method: (f) Direct protectant activity against barley powdery mildew (Erysiphe graminis f.sp. hordei; EGP) The test is a direct protectant foliar spray. Leaves of barley seedlings (cv Golden Promise) at the single leaf stage are sprayed with the test compound as described under (a). After drying, the plants are kept for 24 hours in a glasshouse at 18° C. and 40% R.H. Then the plants are inoculated by dusting with mildew conidia and kept at 18° C. and 40% R.H. for 8 days. Assessment is based on the percentage of leaf area covered by sporulation compared with that on leaves of control plants. The extent of disease control in all the above tests is expressed as a rating compared with either an untreated control or a diluent-sprayed-control, according to the criteria: […]

[5] = test system: Erysiphe graminis f.sp. hordei; test: Activity against barley powdery mildew, direct therapeutic (EGT); format: in vivo; conditions: direct therapeutic foliar spray, 600 ppm, up to 7 days
Method: (e) Activity against barley powdery mildew (Erysiphe graminis f.sp. hordei; EGT) The test is a direct therapeutic foliar spray. Leaves of barley seedlings, (cv. Golden Promise) at the single leaf stage are inoculated by dusting with mildew conidia one day prior to treatment with the test compound. The inoculated plants are kept overnight at glasshouse ambient temperature (18° C.) and humidity (40%) prior to treatment. The plants are sprayed with the test compound at a dosage of 600 ppm using an automated sprayline as described under (a). After drying, plants are returned to a compartment at 18° C. and 40% humidity for up to 7 days. Assessment is based on the percentage of leaf area covered by sporulation compared with that on leaves of control plants. The extent of disease control in all the above tests is expressed as a rating compared with either an untreated control or a diluent-sprayed-control, according to the criteria: […]

[6] = test system: Leptosphaeria nodorum; test: Activity against wheat leafspot (LN); format: in vivo; conditions: direct therapeutic foliar spray, 600 ppm, 6-8 days
Method: (d) Activity against wheat leafspot (Leptosphaeria nodorum; LN.) The test is a direct therapeutic foliar spray. Leaves of wheat plants (cv Norman), at the single leaf stage, are inoculated by spraying with an aqueous suspension containing 1.5×10^6 conidia/ml. The inoculated plants are kept for 24 hours in a high humidity compartment prior to treatment. The plants are sprayed with a solution of the test compound at a dosage of 600 ppm using an automated sprayline as described under (a). After drying, the plants are kept for 6-8 days at 22° C. and moderate humidity (70%). Assessment is based on the density of lesions per leaf compared with that on leaves of control plants. The extent of disease control in all the above tests is expressed as a rating compared with either an untreated control or a diluent-sprayed-control, according to the criteria: […]

[7] = test system: Venturia inaequalis; test: Activity against apple scab in-vitro (VII); format: cell-based; conditions: 10 ppm, 10 days, 20° C., mycelial growth
Method: (j) Activity against apple scab in-vitro (Venturia inaequalis: VII) This test measures the in-vitro activity of compounds against V. inaequalis that causes apple scab. The test compound in acetone is added into 4 ml aliquots of half strength Potato Dextrose Broth dispensed in 25-compartment petri dishes to give final concentrations of 10 ppm. The fungal inoculum consists of mycelial fragments and spores of V. inaequalis grown on malt agar and added to the broth to provide 5×10^4 propagules/ml broth. Petri dishes are incubated at 20° C. for 10 days until the assessment of mycelial growth. The extent of disease control in all the above tests is expressed as a rating compared with either an untreated control or a diluent-sprayed-control, according to the criteria: […]

[8] = test system: Pseudocercosporella herpotrichoides; test: Activity against wheat eyespot in-vitro (PHI); format: cell-based; conditions: 10 ppm, 10 days, 20° C., mycelial growth
Method: (h) Activity against wheat eyespot in-vitro (Pseudocercosporella herpotrichoides; pHI) This test measures the in vitro activity of compounds against the fungus causing wheat eyespot. The test compound is dissolved or suspended in acetone and is added into 4 ml aliquots of half strength Potato Dextrose Broth (PDB) dispended in 25-compartment petri dishes to give a final concentration of 10ppm. The fungal inoculum consists of mycelial fragments of P. herpotrichoides grown in half strength PDB in shaken flasks and added to the broth to provide 5×10^4 fragments/ml broth. Petri dishes are incubated at 20° C. for 10 days until the assessment of mycelial growth. The extent of disease control in all the above tests is expressed as a rating compared with either an untreated control or a diluent-sprayed-control, according to the criteria: […]

[9] = test system: Botrytis cinerea; test: Direct protectant activity against broad bean grey mould (BCB); format: in vivo; conditions: direct protectant foliar spray, 600 ppm, 4 days
Method: (c) Direct protectant activity against broad bean grey mould (Botrytis cinerea; BCB) The test is a direct protectant foliar spray. The upper surfaces of leaves of broad bean plants with two leaf pairs (cv The Sutton) are sprayed with the test compound at a dosage of 600 ppm using an automated sprayline as described under (a). 24 hours after spraying the leaves are inoculated with an aqueous suspension containing 10^6 conidia/ml. For 4 days after inoculation plants are kept in a high humidity compartment at 22° C. Disease is assessed 4 days after inoculation, based on the percentage of leaf surface area covered by lesions. The extent of disease control in all the above tests is expressed as a rating compared with either an untreated control or a diluent-sprayed-control, according to the criteria: […]

[10] = test system: Plasmopara viticola; test: Antisporulant activity against vine downy mildew (PVA); format: in vivo; conditions: vine leaves, antisporulant foliar spray, 600 ppm, 750 l/ha
Method: (a) Antisporulant activity against vine downy mildew (Plasmopara viticola; PVA) The test is a direct antisporulant one using a foliar spray. The lower surfaces of leaves of whole vine plants (cv Cabernet Sauvignon), approximately 8 cm high, are inoculated by spraying with an aqueous suspension containing 5×10^4 zoosporangia/ml. The inoculated plants are kept for 24 hours at 21° C. in a high humidity compartment, then 24 hours at glasshouse ambient temperature and humidity. Infected leaves are sprayed on their lower surfaces with a solution of active material in 1:1 water/acetone containing 0.04% "TWEEN 20" (Trade Mark; a polyoxyethylene sorbitan ester surfactant). Plants are treated using an automated sprayline with an atomising nozzle. The concentration of the compound is 600 ppm, and the spray volume is 750 l/ha. After spraying, the plants are returned to normal glasshouse conditions for 96 hours and are then transferred to the high humidity compartment for 24 hours to induce sporulation. Assessment is based on the percentage of the leaf area covered by sporulation compared with that on control leaves. The extent of disease control in all the above tests is expressed as a rating compared with either an untreated control or a diluent-sprayed-control, according to the criteria: […]

[11] = test system: Phytophthora infestans; format: in vivo; conditions: tomato, direct protectant foliar spray

CC(C)(C)C1CCC2(CC1)CC(N1CCC(c3ccccc3)CC1)CO2 (stereo not drawn) [Compound 4]
disease control rating PO [1]: 0 (less than 50% disease control) | disease control rating RSI [2]: 0 (less than 50% disease control) | disease control rating AS [3]: 0 (less than 50% disease control) | disease control rating EGP [4]: 2 (greater than 80% disease control) | disease control rating EGT [5]: 2 (greater than 80% disease control) | disease control rating LN [6]: 1 (about 50-80% disease control) | disease control rating VII [7]: 1 (about 50-80% disease control) | disease control rating PHI [8]: 1 (about 50-80% disease control) | disease control rating BCB [9]: 0 (less than 50% disease control) | disease control rating PVA [10]: 0 (less than 50% disease control) | disease control rating PIP [11]: 0 (less than 50% disease control)

CCCCCCCNC1COC2(CCC(C(C)(C)C)CC2)C1 (stereo not drawn) [Compound 5]
disease control rating PO [1]: 0 (less than 50% disease control) | disease control rating RSI [2]: 1 (about 50-80% disease control) | disease control rating AS [3]: 0 (less than 50% disease control) | disease control rating EGP [4]: 2 (greater than 80% disease control) | disease control rating EGT [5]: 2 (greater than 80% disease control) | disease control rating LN [6]: 0 (less than 50% disease control) | disease control rating VII [7]: 0 (less than 50% disease control) | disease control rating PHI [8]: 0 (less than 50% disease control) | disease control rating BCB [9]: 1 (about 50-80% disease control) | disease control rating PVA [10]: 0 (less than 50% disease control) | disease control rating PIP [11]: 0 (less than 50% disease control)

CC(C)(C)C1CCC2(CC1)CC(N1CCC3CCCCC3C1)CO2 (stereo not drawn) [Compound 6]
disease control rating PO [1]: 0 (less than 50% disease control) | disease control rating RSI [2]: 1 (about 50-80% disease control) | disease control rating AS [3]: 0 (less than 50% disease control) | disease control rating EGP [4]: 2 (greater than 80% disease control) | disease control rating EGT [5]: 2 (greater than 80% disease control) | disease control rating LN [6]: 0 (less than 50% disease control) | disease control rating VII [7]: 1 (about 50-80% disease control) | disease control rating PHI [8]: 0 (less than 50% disease control) | disease control rating BCB [9]: 1 (about 50-80% disease control) | disease control rating PVA [10]: 0 (less than 50% disease control) | disease control rating PIP [11]: 0 (less than 50% disease control)

CCCCCCCCNC1COC2(CCC(C(C)(C)C)CC2)C1 (stereo not drawn) [Compound 7]
disease control rating PO [1]: 0 (less than 50% disease control) | disease control rating RSI [2]: 2 (greater than 80% disease control) | disease control rating AS [3]: 0 (less than 50% disease control) | disease control rating EGP [4]: 2 (greater than 80% disease control) | disease control rating EGT [5]: 2 (greater than 80% disease control) | disease control rating LN [6]: 0 (less than 50% disease control) | disease control rating VII [7]: 2 (greater than 80% disease control) | disease control rating PHI [8]: 2 (greater than 80% disease control) | disease control rating BCB [9]: 1 (about 50-80% disease control) | disease control rating PVA [10]: 0 (less than 50% disease control) | disease control rating PIP [11]: 0 (less than 50% disease control)

CCCCCNC1COC2(CCC(C(C)(C)C)CC2)C1 (stereo not drawn) [Compound 8]
disease control rating PO [1]: 0 (less than 50% disease control) | disease control rating RSI [2]: 0 (less than 50% disease control) | disease control rating AS [3]: 0 (less than 50% disease control) | disease control rating EGP [4]: 2 (greater than 80% disease control) | disease control rating EGT [5]: 2 (greater than 80% disease control) | disease control rating LN [6]: 0 (less than 50% disease control) | disease control rating VII [7]: 1 (about 50-80% disease control) | disease control rating PHI [8]: 1 (about 50-80% disease control) | disease control rating BCB [9]: 1 (about 50-80% disease control) | disease control rating PVA [10]: 0 (less than 50% disease control) | disease control rating PIP [11]: 0 (less than 50% disease control)

CC(C)(C)C1CCC2(CC1)CC(N1CCCC1)CO2 (stereo not drawn) [Compound 9]
disease control rating PO [1]: 0 (less than 50% disease control) | disease control rating RSI [2]: 0 (less than 50% disease control) | disease control rating AS [3]: 0 (less than 50% disease control) | disease control rating EGP [4]: 2 (greater than 80% disease control) | disease control rating EGT [5]: 2 (greater than 80% disease control) | disease control rating LN [6]: 1 (about 50-80% disease control) | disease control rating VII [7]: 1 (about 50-80% disease control) | disease control rating PHI [8]: 1 (about 50-80% disease control) | disease control rating BCB [9]: 0 (less than 50% disease control) | disease control rating PVA [10]: 0 (less than 50% disease control) | disease control rating PIP [11]: 0 (less than 50% disease control)
